Measurements reported in patent publication US11925643B2, “Toll-like receptor 4 (TLR4) inhibitors and use thereof” (MOR RESEARCH APPLICATIONS LTD., priority 2018, dated 2024).
No end group written: not given here.

Key:
TLR4 signaling = details: primary murine macrophages; cited from earlier work
[1] = system: TLR4-driven inflammatory response; details: mice, cited from earlier work
primary cardiomyocytes [2] = test: CK and LDH release by primary cardiomyocytes under hypoxia (MI like); type: cell-based, Rat; details: 20 μM
Protocol: (§1) Rat hearts (1-2 days old) were removed under sterile conditions and washed three times in phosphate-buffered saline (PBS) to remove excess blood cells. The hearts were minced and then gently agitated in RBD (a solution of proteolytic enzymes (Biological Institute, Ness-Ziona, Israel) prepared from fig tree extract, and diluted 1:100 in Ca^2+- and Mg^2+-free PBS) for a few cycles of 10 min each. Dulbecco's modified Eagle's medium (Biological Industries, Kibbutz Beit Haemek, Israel) containing 10% horse serum was added to supernatant suspensions containing the dissociated cells. The mixture was centrifuged at 1400 rpm for 4 min. The supernatant phase was discarded, and the cells were re-suspended. The cell suspension was diluted to 1.0×10^6 cells/ml, unless stated otherwise, and 1.5 ml of the suspension was placed in 35-mm plastic culture dishes collagen- or gelatin-coated, or on coated cover glasses. The cultures were incubated in a humidified atmosphere of 5% CO2 and 95% air at 37° C.
Using a vacuum pump, the oxygen rich air was evacuated from an incubator containing plates with cell cultures, and a 100% Argon atmosphere was let in, while maintaining a temperature of 37° C. The cell cultures were washed with PBS twice to remove glucose from the medium. Hypoxic treated cells were cultures in PBS without glucose. These cells lasted for 180 minutes.
(§2) Primary cardiomyocytes which were obtained by method described above, were treated with exemplary decoy peptides described herein. After 30 minutes of incubation, sepsis like (LPS treatment for 6 hours), or myocardial infarction (MI) like (hypoxia for 3 hours) conditions were imposed to measure the release of CK and LDH to the medium and determine the potential cardioprotective effect of the tested decoy peptides. Cytotoxicity and level of cell damage were assessed by spectrophotometric measurement of lactate dehydrogenase (LDH) and creatine kinase (CK) activities (at 30° C.). Results are presented as CK and LDH release in arbitrary units (a.u.)
(§3) Activity of LDH and CK was determined in the cell-culture medium (25 μl) transferred into 96-well plates, using commercial L-LDH/CK kits (such as those manufactured, e.g., by Sigma-Aldrich, BioVision™ or Thermo Fisher Scientific®).
(§4) Primary cardiomyocytes were treated with peptides and peptidomimetics of SEQ ID NOs:1-7 provided at concentrations ranging from 1 μM to 20 μM. Following 30 minutes of incubation, sepsis like (LPS treatment for 6 hours) or MI like (hypoxia for 3 hours) conditions were induced to determine the potential cardioprotective effect of the tested compounds. Creatine kinase (CK) and lactate dehydrogenase (LDH) activity were assayed to determine the level of cellular damage and cell protection effect. The experimental procedure is described in Materials and Methods above. Results are presented as CK and LDH release in arbitrary units (a.u.).

primary cardiomyocytes [3] = test: CK and LDH release by primary cardiomyocytes under LPS treatment (sepsis like); type: cell-based, Rat; details: LPS treatment; 20 μM
Protocol: as §1, §2, §3, §4

TLR4 mRNA = TLR4 mRNA level by RT-qPCR in hypoxic cardiomyocytes; type: cell-based; details: hypoxic conditions
Protocol: (§5) Real-time RT-PCR experiments were performed in duplicates on an ABI 7900 instrument (Applied Biosystems™) using Taqman™ Master Mix (Applied Biosystems™). The average threshold cycles (Ct) of the duplicates were used to calculate the relative expression levels of the following genes: TLR4 (Applied Biosystems™ assay primer ID: Mm00569848_m1 Tlr4), TLR2 (assay primer ID: Mm01769726_m1 Tlr2), TNF-α (assay primer ID: Mm00443260_g1 Tnf) and IL-1β (assay primer ID: Mm00434228_m1 II1b) in vitro and in vivo following hypoxia or ischemia, respectively. The reference gene was TBP and the primer used was derived from mouse TATA-box binding protein (Applied Biosystems™ assay primer ID: Mm00446973_m1 Tbp). Amounts of TLR2, TLR4, TNF-α and IL-1β mRNAs in each sample were calculated relative to TBP mRNA, based on the corresponding Cts, as Relative Quantity (RQ) values, and normalized taking as 1 a randomly selected sample of the control group (TBP mRNA). Calculation were performed using the Applied Biosystems Analysis™ software (StepOnePlus V2.2.2). All mRNA scores are presented in arbitrary units.
Next, peptidomimetics of SEQ ID NOs:1 and 2 were tested for their ability to affect the expression of TLR4. The level of TLR4 mRNA was measured by real-time reverse transcriptase polymerase chain reaction (RT-qPCR) method as described in Materials and Methods. The possible effect of both compounds on expression levels of TLR2 mRNA was used as a negative control.

IL-1β mRNA = IL-1β mRNA level by RT-qPCR in hypoxic cardiomyocytes; type: cell-based; details: hypoxic conditions
Protocol: as §5, with “Calculation were performed using the Applied Biosystems Analysis™ software (StepOnePlus V2.2.2). All mRNA scores are presented in arbitrary units.” left out
Decoy peptides represented by compounds PM1-PM10 were tested in vitro for their ability to decrease the level of CK and LDH released by stressed cardiomyocytes following exposure to LPS or hypoxic stimulation, and further evaluated for their ability to affect the level of IL-1β and TLR4 mRNA, and expression of IκB and TLR4 proteins, according to the protocols described in Materials and Methods and in Example 5 herein above.

IVFAEMPCG (Ac-IVFAEMPCG) [prior art decoy peptide derived from the TRAM TIR domain (Piao et al., 2013); used N-acetylated as positive control]
TLR4 signaling (TLR4 signaling): inhibited
LPS-induced activation of MyD88-dependent and TRIF-dependent cytokines and MAPKs [1]: inhibited
survival ([1]; lethal LPS dose): dramatically improving
circulating cytokine levels ([1]; sublethal dose of LPS): significantly diminishing

Cc1cn(Cc2ccccc2)c(=O)nc1NCCC(C)C [PM2, 1-benzyl-4-(isopentylamino)-5-methylpyrimidin-2(1H)-one]
CK release (primary cardiomyocytes [2]): significant reduction
LDH release (primary cardiomyocytes [2]): significant reduction
CK release (primary cardiomyocytes [3]): no significant effect
LDH release (primary cardiomyocytes [3]): no significant effect
inhibition of TLR4 mRNA production (TLR4 mRNA): 2 fold
inhibition of IL-1β mRNA production (IL-1β mRNA): 1.3 fold
